Data: patent publication US20200163954A1 (Exelixis, Inc., priority 2014, published 2020)
Like-named read-outs stand apart in the source and are kept apart here.

Assays:
[1] = Metabolite profiling in human plasma, urine and feces (mass balance study, [14C] cabozantinib); type: in vivo; conditions: for Presence in pooled fecal sample, 0-72 hours post dose / Presence in pooled fecal sample, 144-192 hours post dose: human feces; for Peak on plasma radio-chromatograms: human plasma, one subject, single 175 mg oral dose of cabozantinib (L-malate salt) with [14C] cabozantinib
Method: The objective of this study was to profile and identify metabolites of cabozantinib in human plasma, urine, and feces.
The plasma, urine, and fecal samples were collected from the 8 subjects for the metabolite profiling.
All samples were shipped to QPS LLC (Newark, Del.) and stored at −70° C. HPLC/tandem MS coupled with a radio flow-through detector (RFD) was used for metabolite profiling and identification for samples with sufficient levels of radioactivity.
HPLC fraction collection followed by counting with TopCount NXT™ was used for radioquantitation of plasma samples with sufficient levels of radioactivity. […] HPLC Method 1 was used for the analysis of pooled urine and fecal samples and individual plasma samples from different time points. […] HPLC Method 3 was used for pooled plasma samples.
For the investigation of co-eluting metabolites, nonradiolabeled plasma samples of six subjects were pooled, processed, and analyzed for pre-dose, 1-7, 8-96, and 120-336 hours post-dose. […] [^14C]
Radiolabeled and non-radiolabeled plasma samples were extracted employing the same method, using 1.0-2 mL plasma samples, depending on the volume available and radioactivity level of the samples. The supernatants were evaporated to dryness under a stream of nitrogen in an ambient water bath, and the residues were reconstituted in 0.35-0.5 mL of MeOH:ACN:water (10:20:70, v/v/v). The reconstituted samples were centrifuged at 15,000 rpm for 10 minutes. Aliquots of the supernatants were injected onto the HPLC system for analysis.
The radioactivity in pooled urine and reconstituted solution was counted using LSC, and the reconstitution recovery calculated. […] Each pooled urine sample was lyophilized, the residue was reconstituted in water:ACN:FA (80:20:0.1, v/v/v), and the reconstituted sample was centrifuged at 15,000 rpm for 10 min before analysis.
The supernatants were dried under a nitrogen stream, and the residues were reconstituted in water:ACN:FA (80:20:0.1, v/v/v). The reconstituted samples were centrifuged at 15,000 rpm for 10 min before analysis.
The system for metabolite profiling and identification (HPLC/MS/RFD) consisted of a HTC PAL autosampler, a Surveyor HPLC pump, a LTQ linear ion trap mass spectrometer, and a β-RAM Model 3 RFD. The data obtained by mass spectrometry and RFD were processed by Xcalibur and Laura Lite 3 software, respectively. The HPLC eluent was split between the RFD and mass spectrometer with a ratio of 3 to 1. The following are the summary of the conditions for HPLC, mass spectrometer, and RFD.
For plasma samples, percent of total radioactivity in the sample for each peak at each time point was calculated and converted to ng/mL.

[2] = PK parameters of cabozantinib and measured metabolites in human subjects; type: in vivo; conditions: for AUC(0-inf) / Cmax / Tmax / AUC(0-t) / half-life: human, plasma, oral, 140 mg/day; for half-life: read-out: t1/2, apparent terminal elimination half-life (converted)
Flt-4 = biological target: T1, Flt-4 (Homo sapiens, UniProt P35916); experiment: Kinase activity (EMD Millipore Kinase Profiler), Flt-4; type: biochemical; conditions: class symbol; read-out: Flt-4 Std (IC50)
T1 construct: purchased EMD Millipore (Kinase Profiler service)

Flt-3 = biological target: T2, Flt-3 (Homo sapiens, UniProt P36888); experiment: Kinase activity (EMD Millipore Kinase Profiler), Flt-3; type: biochemical; conditions: class symbol; read-out: Flt-3 Std (IC50)
T2 construct: purchased EMD Millipore (Kinase Profiler service)
T2 sequence (P36888 27-993): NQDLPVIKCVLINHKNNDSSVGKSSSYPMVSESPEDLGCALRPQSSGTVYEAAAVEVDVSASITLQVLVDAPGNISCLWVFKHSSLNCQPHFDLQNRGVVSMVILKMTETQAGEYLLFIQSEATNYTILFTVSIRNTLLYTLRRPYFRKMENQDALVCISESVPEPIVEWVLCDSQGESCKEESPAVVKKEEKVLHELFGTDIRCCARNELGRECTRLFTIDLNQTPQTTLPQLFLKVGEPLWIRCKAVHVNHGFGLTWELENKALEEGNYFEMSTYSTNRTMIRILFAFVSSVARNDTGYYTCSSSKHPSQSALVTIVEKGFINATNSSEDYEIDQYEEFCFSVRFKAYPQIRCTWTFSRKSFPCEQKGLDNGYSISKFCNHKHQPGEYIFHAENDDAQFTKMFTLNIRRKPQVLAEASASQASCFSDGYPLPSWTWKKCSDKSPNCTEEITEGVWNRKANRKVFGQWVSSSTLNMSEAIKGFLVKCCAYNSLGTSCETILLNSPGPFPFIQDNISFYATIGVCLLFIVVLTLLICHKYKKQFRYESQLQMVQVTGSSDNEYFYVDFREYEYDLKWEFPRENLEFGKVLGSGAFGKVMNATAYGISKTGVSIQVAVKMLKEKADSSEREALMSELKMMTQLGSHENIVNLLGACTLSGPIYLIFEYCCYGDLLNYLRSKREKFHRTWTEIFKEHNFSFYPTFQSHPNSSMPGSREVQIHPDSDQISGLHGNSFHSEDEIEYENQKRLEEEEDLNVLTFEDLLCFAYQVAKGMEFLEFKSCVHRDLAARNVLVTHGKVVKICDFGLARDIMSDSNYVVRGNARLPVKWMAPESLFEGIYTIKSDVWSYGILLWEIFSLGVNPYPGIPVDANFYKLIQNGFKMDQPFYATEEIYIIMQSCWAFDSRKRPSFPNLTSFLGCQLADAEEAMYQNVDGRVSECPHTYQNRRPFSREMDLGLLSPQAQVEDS

c-Met = biological target: T3, c-Met (Homo sapiens, UniProt P08581); experiment: Kinase activity (EMD Millipore Kinase Profiler), c-Met; type: biochemical; conditions: class symbol; read-out: c-Met Std (IC50)
T3 construct: purchased EMD Millipore (Kinase Profiler service)

KDR = biological target: T4, KDR (Homo sapiens, UniProt P35968); experiment: Kinase activity (EMD Millipore Kinase Profiler), KDR; type: biochemical; conditions: class symbol; read-out: KDR Std (IC50)
T4 construct: purchased EMD Millipore (Kinase Profiler service)

[3] = HPLC Method 1, single 175 mg oral dose
[4] = eight human subjects, cabozantinib 140 mg/day, time zero to 24 hours post dose, read-out: AUC0-24
[5] = eight human subjects, cabozantinib 140 mg/day, time zero to 72 hours post dose, read-out: AUC0-72
[6] = eight human subjects, cabozantinib 140 mg/day, time zero to last measurable concentration, read-out: AUC0-t
[7] = human urine, HPLC Method 1, single 175 mg oral dose

T4 sequence (P35968 20-1356): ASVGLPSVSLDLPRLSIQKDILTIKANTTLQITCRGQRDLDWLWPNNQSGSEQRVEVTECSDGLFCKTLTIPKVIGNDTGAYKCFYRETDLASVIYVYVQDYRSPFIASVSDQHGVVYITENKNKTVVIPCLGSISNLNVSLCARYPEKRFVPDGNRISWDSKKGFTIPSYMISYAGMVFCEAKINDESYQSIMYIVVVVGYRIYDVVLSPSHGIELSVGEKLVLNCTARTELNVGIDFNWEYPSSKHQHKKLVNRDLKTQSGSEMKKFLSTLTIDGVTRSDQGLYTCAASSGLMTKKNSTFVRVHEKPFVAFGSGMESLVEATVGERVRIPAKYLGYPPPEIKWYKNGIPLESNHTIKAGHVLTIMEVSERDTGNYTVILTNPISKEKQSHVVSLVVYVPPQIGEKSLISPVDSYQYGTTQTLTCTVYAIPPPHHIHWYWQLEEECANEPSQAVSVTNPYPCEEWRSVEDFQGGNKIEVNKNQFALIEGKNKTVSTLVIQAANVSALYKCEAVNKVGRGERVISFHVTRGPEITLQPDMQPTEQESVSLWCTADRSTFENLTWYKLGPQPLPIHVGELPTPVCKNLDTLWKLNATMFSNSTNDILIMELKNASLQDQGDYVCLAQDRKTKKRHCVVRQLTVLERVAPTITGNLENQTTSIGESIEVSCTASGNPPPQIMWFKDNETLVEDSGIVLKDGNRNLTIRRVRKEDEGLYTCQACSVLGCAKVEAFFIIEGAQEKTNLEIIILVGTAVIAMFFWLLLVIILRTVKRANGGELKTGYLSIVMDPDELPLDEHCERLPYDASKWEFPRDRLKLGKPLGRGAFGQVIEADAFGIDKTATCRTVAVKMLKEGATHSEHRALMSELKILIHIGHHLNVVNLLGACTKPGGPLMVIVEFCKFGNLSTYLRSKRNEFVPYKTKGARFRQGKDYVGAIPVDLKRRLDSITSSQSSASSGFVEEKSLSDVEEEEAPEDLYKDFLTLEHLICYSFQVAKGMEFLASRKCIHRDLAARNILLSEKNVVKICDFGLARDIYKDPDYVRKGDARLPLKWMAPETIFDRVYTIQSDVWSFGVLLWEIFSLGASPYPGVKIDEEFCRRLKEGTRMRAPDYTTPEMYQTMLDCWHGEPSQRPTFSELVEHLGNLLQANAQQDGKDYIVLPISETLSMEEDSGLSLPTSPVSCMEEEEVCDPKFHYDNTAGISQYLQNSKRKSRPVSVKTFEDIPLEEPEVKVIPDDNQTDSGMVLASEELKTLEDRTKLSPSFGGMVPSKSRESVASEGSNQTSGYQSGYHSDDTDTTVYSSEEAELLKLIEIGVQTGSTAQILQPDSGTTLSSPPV
T3 sequence (P08581 25-1390): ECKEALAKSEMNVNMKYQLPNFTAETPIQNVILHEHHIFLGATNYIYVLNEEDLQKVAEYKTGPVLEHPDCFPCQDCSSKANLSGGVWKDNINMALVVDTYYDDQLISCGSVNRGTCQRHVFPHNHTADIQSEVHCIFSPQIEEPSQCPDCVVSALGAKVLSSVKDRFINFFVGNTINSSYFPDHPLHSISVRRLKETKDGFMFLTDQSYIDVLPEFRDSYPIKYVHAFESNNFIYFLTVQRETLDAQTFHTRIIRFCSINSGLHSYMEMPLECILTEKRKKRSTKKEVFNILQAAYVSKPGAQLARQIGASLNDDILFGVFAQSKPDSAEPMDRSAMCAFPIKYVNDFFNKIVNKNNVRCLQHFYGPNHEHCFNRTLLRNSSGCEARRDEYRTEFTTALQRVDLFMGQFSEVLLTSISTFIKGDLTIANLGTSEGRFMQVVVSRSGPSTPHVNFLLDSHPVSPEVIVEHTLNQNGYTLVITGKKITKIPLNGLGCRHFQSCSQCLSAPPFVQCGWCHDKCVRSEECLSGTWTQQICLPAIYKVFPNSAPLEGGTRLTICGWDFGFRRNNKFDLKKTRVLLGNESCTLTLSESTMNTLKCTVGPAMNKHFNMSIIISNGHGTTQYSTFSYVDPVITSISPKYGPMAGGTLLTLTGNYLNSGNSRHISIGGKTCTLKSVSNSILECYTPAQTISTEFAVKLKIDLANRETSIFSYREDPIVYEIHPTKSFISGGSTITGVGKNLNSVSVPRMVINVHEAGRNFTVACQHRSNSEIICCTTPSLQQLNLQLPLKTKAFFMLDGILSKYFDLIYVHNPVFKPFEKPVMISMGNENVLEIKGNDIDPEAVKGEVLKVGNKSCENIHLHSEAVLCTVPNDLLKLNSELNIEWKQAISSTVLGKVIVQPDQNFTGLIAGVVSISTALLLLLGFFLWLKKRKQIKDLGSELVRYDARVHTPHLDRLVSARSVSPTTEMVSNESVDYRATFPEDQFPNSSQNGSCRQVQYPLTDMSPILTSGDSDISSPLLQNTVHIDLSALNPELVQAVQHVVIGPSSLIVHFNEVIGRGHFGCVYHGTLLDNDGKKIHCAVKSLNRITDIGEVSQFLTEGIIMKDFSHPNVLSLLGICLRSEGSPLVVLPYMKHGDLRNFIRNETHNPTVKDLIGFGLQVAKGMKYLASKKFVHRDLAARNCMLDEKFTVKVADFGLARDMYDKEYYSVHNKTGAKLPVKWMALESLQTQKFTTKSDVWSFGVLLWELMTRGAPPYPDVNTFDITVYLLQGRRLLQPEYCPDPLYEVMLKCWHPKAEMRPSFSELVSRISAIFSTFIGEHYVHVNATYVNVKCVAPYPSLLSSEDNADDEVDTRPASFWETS
T1 sequence (P35916 25-1363): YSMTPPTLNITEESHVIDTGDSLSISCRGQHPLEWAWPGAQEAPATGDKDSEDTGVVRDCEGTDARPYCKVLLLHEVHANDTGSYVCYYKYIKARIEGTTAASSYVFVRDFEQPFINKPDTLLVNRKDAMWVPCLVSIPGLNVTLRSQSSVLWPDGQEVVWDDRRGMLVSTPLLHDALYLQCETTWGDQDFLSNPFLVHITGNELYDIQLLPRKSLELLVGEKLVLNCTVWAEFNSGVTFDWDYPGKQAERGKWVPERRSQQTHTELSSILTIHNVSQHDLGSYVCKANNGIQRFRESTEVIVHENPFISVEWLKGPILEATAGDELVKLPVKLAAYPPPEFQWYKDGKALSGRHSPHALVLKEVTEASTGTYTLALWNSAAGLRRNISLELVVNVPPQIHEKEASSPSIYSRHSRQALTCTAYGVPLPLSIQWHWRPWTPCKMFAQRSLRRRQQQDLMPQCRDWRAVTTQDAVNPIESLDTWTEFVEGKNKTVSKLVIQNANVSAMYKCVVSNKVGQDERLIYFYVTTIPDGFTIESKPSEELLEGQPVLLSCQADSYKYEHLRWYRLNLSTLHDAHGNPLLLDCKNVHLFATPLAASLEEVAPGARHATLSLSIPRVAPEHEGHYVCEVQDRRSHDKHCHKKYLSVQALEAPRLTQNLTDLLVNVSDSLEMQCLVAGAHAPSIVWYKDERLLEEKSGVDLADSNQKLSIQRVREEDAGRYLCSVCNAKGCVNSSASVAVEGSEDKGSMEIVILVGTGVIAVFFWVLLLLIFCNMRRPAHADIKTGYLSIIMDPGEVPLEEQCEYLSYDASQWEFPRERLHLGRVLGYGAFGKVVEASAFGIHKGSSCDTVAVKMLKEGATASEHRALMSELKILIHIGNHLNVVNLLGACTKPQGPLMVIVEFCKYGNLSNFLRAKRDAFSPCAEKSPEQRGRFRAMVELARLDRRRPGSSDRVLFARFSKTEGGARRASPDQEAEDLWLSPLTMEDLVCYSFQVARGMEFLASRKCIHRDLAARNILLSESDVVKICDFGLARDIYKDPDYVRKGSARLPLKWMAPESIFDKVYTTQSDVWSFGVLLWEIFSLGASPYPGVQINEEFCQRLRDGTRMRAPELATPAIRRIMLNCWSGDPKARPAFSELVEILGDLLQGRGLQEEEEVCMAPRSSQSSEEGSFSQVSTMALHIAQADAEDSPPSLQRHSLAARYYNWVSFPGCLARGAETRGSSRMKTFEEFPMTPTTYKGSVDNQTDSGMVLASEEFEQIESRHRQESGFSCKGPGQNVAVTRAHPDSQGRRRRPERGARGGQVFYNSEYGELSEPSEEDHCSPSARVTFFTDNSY

Compound | Presence in pooled fecal sample, 0-72 hours post dose [1, 3] | Peak on plasma radio-chromatograms [1] | AUC(0-inf) [2] | Cmax [2] | Tmax [2] | AUC(0-t) [2, 4] | AUC(0-t) [2, 5] | AUC(0-t) [2, 6] | Presence in pooled urine sample, 0-72 hours post dose [1, 7] | half-life [2] | other results
COc1cc2nccc(Oc3ccc(NC(=O)C4(C(=O)Nc5ccc(F)cc5)CC4)cc3)c2cc1OC [Cabozantinib, N-(4-{[6,7-bis(methyloxy)quinolin-4-yl]oxy}phenyl)-N′-(4-fluorophenyl)cyclopropane-1,1-dicarboxamide, reference compound] | observed | major peaks | 68000 ± 6910 ng·h/mL | 1250 ng/mL | 1.49 h | 14300 ± 2600 ng·h/mL | 35000 ± 6770 ng·h/mL | 67200 ± 6880 ng·h/mL |  |  | Presence in urine samples ([1]; human urine, all samples, single 175 mg oral dose): not observed; kel, apparent terminal elimination rate constant ([2]; eight human subjects, cabozantinib 140 mg/day): 0.00712 ± 0.001 h⁻¹; IC50 (Flt-4): < 50 nM
COc1cc2nccc(Oc3ccc(N)cc3)c2cc1O [Compound 1] |  |  |  |  |  |  |  |  | observed |  | Presence in pooled urine sample, 144-192 hours post dose [1, 7]: observed; Presence in pooled urine sample, 288-336 hours post dose [1, 7]: detected
COc1cc2nccc(Oc3ccc(NC(=O)C4(C(=O)O)CC4)cc3)c2cc1OC [Compound 7, 1-[4-(6,7-Dimethoxy-quinolin-4-yloxy)-phenylcarbamoyl]-cyclopropane carboxylic Acid] | observed | one of the minor peaks |  |  |  |  |  |  | observed |  | Presence in pooled fecal sample, 144-192 hours post dose [1, 3]: observed; Presence in pooled urine sample, 144-192 hours post dose [1, 7]: observed
COc1cc2nccc(Oc3ccc(NC(=O)C4(C(=O)Nc5ccc(F)c(O)c5)CC4)cc3)c2cc1OC [Compound 13] |  |  |  |  |  |  |  |  |  |  | IC50 (Flt-3): < 50 nM; IC50 (c-Met): < 50 nM; IC50 (KDR): < 50 nM
COc1cc2nccc(Oc3ccc(NC(=O)C4(C(=O)Nc5ccc(F)cc5O)CC4)cc3)c2cc1OC [Compound 16] | observed |  |  |  |  |  |  |  |  |  | Presence in pooled fecal sample, 144-192 hours post dose [1, 3]: observed; IC50 (Flt-3): < 50 nM; IC50 (c-Met): < 50 nM; IC50 (KDR): < 50 nM

Further lines, with some results ahead:

Presence in pooled fecal sample, 0-72 hours post dose [1, 3] | Peak on plasma radio-chromatograms [1] | AUC(0-inf) [2] | Cmax [2] | Tmax [2] | AUC(0-t) [2, 4] | AUC(0-t) [2, 5] | AUC(0-t) [2, 6] | Presence in pooled urine sample, 0-72 hours post dose [1, 7] | half-life [2] | Compound | other results
 | major peaks |  |  |  |  |  |  | observed |  | COc1cc2c(Oc3ccc(NC(=O)C4(C(=O)Nc5ccc(F)cc5)CC4)cc3)cc[n+]([O-])c2cc1OC [Compound 19, Cabozantinib N-Oxide] | 
 |  | 6770 ng·h/mL | 52.9 ng/mL | 19 h | 1080 ng·h/mL | 3120 ng·h/mL | 6540 ng·h/mL |  | 91.8 h | COc1cc2nccc(Oc3ccc(NC(=O)C4(C(=O)O)CC4)cc3)c2cc1OC [drawing 45] | 
 |  | 10300 ng·h/mL | 118 ng/mL | 13.5 h | 2030 ng·h/mL | 5610 ng·h/mL | 10100 ng·h/mL |  | 89.2 h | COc1cc2c(Oc3ccc(NC(=O)C4(C(=O)Nc5ccc(F)cc5)CC4)cc3)cc[n+]([O-])c2cc1OC [drawing 46] | 
 |  | 29500 ng·h/mL | 236 ng/mL | 24 h | 3970 ng·h/mL | 12600 ng·h/mL | 28900 ng·h/mL |  | 86 h | COc1cc2nccc(Oc3ccc(NC(=O)C4(C(=O)Nc5ccc(F)cc5OS(=O)(=O)O)CC4)cc3)c2cc1OC [drawing 47] | 
